US12612409B2, “Pyrrolopyrimidines as CFTR potentiators” (Cystic Fibrosis Foundation, priority 2016, dated 2026)

Legend:
[1] = molecular target: T1, CFTR in F508del/F508del primary CF hBE cells (Homo sapiens, UniProt P13569, DEL508-508); assay: Ussing chamber electrophysiology assay of CFTR potentiation in F508del/F508del CF bronchial epithelial cells (27° C.); format: cell-based
T1 construct: Primary cystic fibrosis human bronchial epithelial (CF hBE) cells were expanded and cultured; endogenous in cells; host or cells: primary CF human bronchial epithelial cells, genotype F508del/F508del
Procedure, shortened: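 Well-differentiated primary CF hBE cells (>30 days air/liquid interface) in Ussing chambers, HEPES saline both sides, voltage clamped to zero. Amiloride 30 uM, forskolin 10 uM, four rising compound concentrations, then CFTRinh-172 20 uM added at 20-25 min intervals. Short-circuit current scaled to DMSO (0%) and a positive control potentiator maximum (100%).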

[2] = molecular target: T2, recombinant F508del V470 CFTR in Fischer rat thyroid (FRT) cells (Homo sapiens, UniProt P13569, DEL508-508); assay: FRT ion flux assay of F508del CFTR potentiation; format: cell-based; details: FRT cells expressing F508del V470 CFTR, forskolin 20 uM, 27° C. pre-incubation
T2 construct: expressed in transfected cells
Procedure, shortened: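 FRT cells co-expressing F508del V470 CFTR and halide-sensitive YFP, temperature-corrected at 27° C for 16-24 h, then treated 30 min with compound plus 20 uM forskolin. Iodide addition quenches YFP, read after ~21 s; ratio scaled to DMSO (0%) and positive control potentiator (100%).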

T1 sequence (P13569 with tags, fused parts or gaps DEL508-508): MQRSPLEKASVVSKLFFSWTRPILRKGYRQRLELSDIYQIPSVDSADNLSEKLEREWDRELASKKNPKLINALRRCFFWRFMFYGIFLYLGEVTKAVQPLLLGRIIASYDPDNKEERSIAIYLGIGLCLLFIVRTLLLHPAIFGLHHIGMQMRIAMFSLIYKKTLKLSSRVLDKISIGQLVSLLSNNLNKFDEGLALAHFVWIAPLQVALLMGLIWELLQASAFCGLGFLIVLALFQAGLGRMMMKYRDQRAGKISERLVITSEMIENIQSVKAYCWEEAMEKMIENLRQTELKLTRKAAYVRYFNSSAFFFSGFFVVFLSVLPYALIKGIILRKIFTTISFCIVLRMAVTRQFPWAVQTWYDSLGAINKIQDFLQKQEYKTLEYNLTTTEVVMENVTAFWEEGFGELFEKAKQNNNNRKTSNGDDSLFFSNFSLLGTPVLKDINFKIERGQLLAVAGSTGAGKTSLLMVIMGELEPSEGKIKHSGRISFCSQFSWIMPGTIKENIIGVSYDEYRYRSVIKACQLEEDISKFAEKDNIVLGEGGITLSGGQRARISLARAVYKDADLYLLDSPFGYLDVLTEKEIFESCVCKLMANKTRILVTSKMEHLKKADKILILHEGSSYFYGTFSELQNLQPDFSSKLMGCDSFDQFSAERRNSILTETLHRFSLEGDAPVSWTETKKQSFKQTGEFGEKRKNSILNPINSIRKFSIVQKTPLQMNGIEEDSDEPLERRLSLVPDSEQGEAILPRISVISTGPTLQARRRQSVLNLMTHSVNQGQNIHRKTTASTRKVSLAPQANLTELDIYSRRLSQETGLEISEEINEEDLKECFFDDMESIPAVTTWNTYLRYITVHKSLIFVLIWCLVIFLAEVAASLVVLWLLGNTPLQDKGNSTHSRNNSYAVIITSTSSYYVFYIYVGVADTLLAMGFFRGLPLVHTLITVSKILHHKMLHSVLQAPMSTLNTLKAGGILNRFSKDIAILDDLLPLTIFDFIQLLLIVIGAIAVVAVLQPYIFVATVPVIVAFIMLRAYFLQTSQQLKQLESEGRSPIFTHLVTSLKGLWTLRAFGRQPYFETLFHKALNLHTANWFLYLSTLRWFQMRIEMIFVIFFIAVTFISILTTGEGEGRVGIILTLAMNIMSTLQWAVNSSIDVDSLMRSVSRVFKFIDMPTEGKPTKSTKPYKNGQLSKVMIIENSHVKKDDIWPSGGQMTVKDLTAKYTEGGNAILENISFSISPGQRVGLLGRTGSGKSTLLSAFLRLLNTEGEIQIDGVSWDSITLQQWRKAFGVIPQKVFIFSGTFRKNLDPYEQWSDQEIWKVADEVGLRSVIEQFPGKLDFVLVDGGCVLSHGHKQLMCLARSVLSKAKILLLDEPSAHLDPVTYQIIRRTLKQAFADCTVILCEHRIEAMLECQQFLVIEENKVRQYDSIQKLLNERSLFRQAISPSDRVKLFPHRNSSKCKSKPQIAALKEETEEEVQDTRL
T2 sequence (P13569 with tags, fused parts or gaps DEL508-508): as above

| EC50 [1] [nM] | EC50 [2] [nM] | Structure (SMILES) |
| --- | --- | --- |
| 17.4 | 62.5 | Nc1ncnc2c1c(-c1ccc(OC3CC3)cc1)cn2Cc1cn(-c2ccccc2F)nn1 [Example 77, 5-[4-(Cyclopropyloxy)phenyl]-7-{[1-(2-fluorophenyl)-1H-1,2,3-triazol-4-yl]methyl}-7H-pyrrolo[2,3-d]pyrimidin-4-amine] |
| 136 | 533 | CC(c1cn(-c2ccccc2F)nn1)n1cc(-c2ccc(Cl)cc2)c2c(N)ncnc21 (single isomer, unassigned) [Example 111] |
| 12 | 21.6 | CCC(c1cn(-c2ccccc2)nn1)n1cc(-c2ccc(OC)nc2)c2c(N)ncnc21 (single isomer, unassigned; enantiomer 2) [Example 126, 5-(6-Methoxypyridin-3-yl)-7-[1-(1-phenyl-1H-1,2,3-triazol-4-yl)propyl]-7H-pyrrolo[2,3-d]pyrimidin-4-amine, enantiomer 2] |
| 26.1 | 112 | Cc1ccc(-c2cn(C(C)c3cnc(-c4ccccc4F)[nH]3)c3ncnc(N)c23)cc1F (centres unmarked) [Example 68, 5-(3-Fluoro-4-methylphenyl)-7-{1-[2-(2-fluorophenyl)-1H-imidazol-5-yl]ethyl}-7H-pyrrolo[2,3-d]pyrimidin-4-amine] |
| 97.1 | 296 | CCC(c1cn(-c2ccc(F)cc2F)nn1)n1cc(-c2cc(F)cnc2OC)c2c(N)ncnc21 (single isomer, unassigned; enantiomer 1) [Example 163, 7-{1-[1-(2,4-Difluorophenyl)-1H-1,2,3-triazol-4-yl]propyl}-5-(5-fluoro-2-methoxypyridin-3-yl)-7H-pyrrolo[2,3-d]pyrimidin-4-amine, enantiomer 1] |
| 57 | 186 | COc1cc(C#N)cc(-c2cn(Cc3cn(-c4ccccc4F)nn3)c3ncnc(N)c23)c1 [Example 72, 3-(4-Amino-7-{[1-(2-fluorophenyl)-1H-1,2,3-triazol-4-yl]methyl}-7H-pyrrolo[2,3-d]pyrimidin-5-yl)-5-methoxybenzonitrile] |
| 135 | 190 | CCC(c1cn(-c2ccccc2F)nn1)n1cc(-c2cncnc2OC)c2c(N)nc(C)nc21 (single isomer, unassigned; enantiomer 2) [Example 304, (−) 7-{1-[1-(2-fluorophenyl)-1H-1,2,3-triazol-4-yl]propyl}-5-(4-methoxypyrimidin-5-yl)-2-methyl-7H-pyrrolo[2,3-d]pyrimidin-4-amine, enantiomer 2] |
| 58.8 | 25.2 | CC(c1cn(-c2ccccc2F)nn1)n1cc(-c2cnc(C(F)(F)F)nc2)c2c(N)ncnc21 (centres unmarked) [Example 216, 7-{1-[1-(2-Fluorophenyl)-1H-1,2,3-triazol-4-yl]ethyl}-5-[2-(trifluoromethyl)pyrimidin-5-yl]-7H-pyrrolo[2,3-d]pyrimidin-4-amine] |

The remaining lines, values behind:

| Structure (SMILES) | EC50 [1] [nM] | EC50 [2] [nM] |
| --- | --- | --- |
| CC(c1cc(-c2ccccc2F)no1)n1cc(-c2ccc(N(C)C)cc2)c2c(N)ncnc21 (centres unmarked) [Example 105, 5-[4-(Dimethylamino)phenyl]-7-{1-[3-(2-fluorophenyl)-1,2-oxazol-5-yl]ethyl}-7H-pyrrolo[2,3-d]pyrimidin-4-amine] | 75 | 374 |
| Cn1ncc2cc(-c3cn(Cc4cn(-c5ccccc5F)nn4)c4ncnc(N)c34)ccc21 [Example 86, 7-{[1-(2-Fluorophenyl)-1H-1,2,3-triazol-4-yl]methyl}-5-(1-methyl-1H-indazol-5-yl)-7H-pyrrolo[2,3-d]pyrimidin-4-amine] | 659 | 539 |
| CCC(c1cn(-c2ccccc2F)nn1)n1cc(C2CC2)c2c(N)ncnc21 (single isomer, unassigned; enantiomer 2) [Example 316, (+) 5-Cyclopropyl-7-{1-[1-(2-fluorophenyl)-1H-1,2,3-triazol-4-yl]propyl}-7H-pyrrolo[2,3-d]pyrimidin-4-amine, enantiomer 2] | 541 | 754 |
| CCC(c1cn(-c2cccc(F)c2F)nn1)n1cc(-c2cncnc2OC)c2c(N)ncnc21 (single isomer, unassigned; enantiomer 1) [Example 305, (−) 7-{1-[1-(2,3-Difluorophenyl)-1H-1,2,3-triazol-4-yl]propyl}-5-(4-methoxypyrimidin-5-yl)-7H-pyrrolo[2,3-d]pyrimidin-4-amine, enantiomer 1] | 372 | 545 |
| CCC(c1cn(-c2ccc(F)cc2F)nn1)n1cc(-c2cnc(C(F)F)nc2)c2c(N)ncnc21 (single isomer, unassigned; enantiomer 1) [Example 167, 5-[2-(Difluoromethyl)pyrimidin-5-yl]-7-{1-[1-(2,4-difluorophenyl)-1H-1,2,3-triazol-4-yl]propyl}-7H-pyrrolo[2,3-d]pyrimidin-4-amine, enantiomer 1] | 50.5 | 25 |
| CC(C)(c1cn(-c2ccccc2F)nn1)n1cc(-c2ccc(Cl)cc2)c2c(N)ncnc21 [Example 256, 5-(4-Chlorophenyl)-7-{2-[1-(2-fluorophenyl)-1H-1,2,3-triazol-4-yl]propan-2-yl}-7H-pyrrolo[2,3-d]pyrimidin-4-amine] | 45 | 341 |
| CC(c1cn(-c2ccccc2F)nn1)n1cc(-c2ccc(C#N)c(F)c2)c2c(N)ncnc21 (centres unmarked) [Example 239, 4-(4-Amino-7-{1-[1-(2-fluorophenyl)-1H-1,2,3-triazol-4-yl)ethyl]-7H-pyrrolo[2,3-d]pyrimidin-5-yl}-2-fluorobenzonitrile] | 83 | 94.4 |
| CCC(c1c[nH]c(-c2ccc(F)cc2F)n1)n1cc(-c2cnc(C(F)(F)F)nc2)c2c(N)ncnc21 (single isomer, unassigned; enantiomer 1) [Example 177, 7-{1-[2-(2,4-Difluorophenyl)-2H-imidazol-4-yl]propyl}-5-[2-(trifluoromethyl)pyrimidin-5-yl]-7H-pyrrolo[2,3-d]pyrimidin-4-amine, enantiomer 1] | 18.9 | 21.6 |
| COc1ncc(-c2cn(C(C)c3cc(-c4ccccc4F)no3)c3ncnc(N)c23)cn1 (single isomer, unassigned; (+)) [Example 184, (+) 7-{1-[3-(2-fluorophenyl)-1,2-oxazol-5-yl]ethyl}-5-(2-methoxypyrimidin-5-yl)-7H-pyrrolo[2,3-d]pyrimidin-4-amine] | 32.6 | 49.7 |
| Nc1ncnc2c1c(C1CC1)cn2Cc1cn(-c2ccccc2F)nn1 [Example 289, 5-Cyclopropyl-7-{[1-(2-fluorophenyl)-1H-1,2,3-triazol-4-yl]methyl}-7H-pyrrolo[2,3-d]pyrimidin-4-amine] | 342 | 142 |
| CCC(c1cn(-c2ccccc2F)nn1)n1cc(C2CC2)c2c(N)ncnc21 (centres unmarked) [Example 236, 5-cyclopropyl-7-{1-[1-(2-fluorophenyl)-1H-1,2,3-triazol-4-yl]propyl}-7H-pyrrolo[2,3-d]pyrimidin-4-amine] | 38.8 | 56 |
| CC(c1cnn(-c2ccc(F)cc2F)c1)n1c(C#N)c(-c2cnc(C(F)(F)F)nc2)c2c(N)ncnc21 (single isomer, unassigned) [Example 7, 4-Amino-7-{1-[1-(2,4-difluorophenyl)-1H-pyrazol-4-yl]ethyl}-5-[2-(trifluoromethyl)pyrimidin-5-yl]-7H-pyrrolo[2,3-d] pyrimidine-6-carbonitrile] | 1.84 | 2.76 |
| CCC(c1cn(-c2ccccc2F)nn1)n1c(C#N)c(-c2ccc(OC(F)F)nc2)c2c(N)ncnc21 (single isomer, unassigned) [Example 24, 4-Amino-5-[6-(difluoromethoxy)pyridin-3-yl]-7-{1-[1-(2-fluorophenyl)-1H-1,2,3-triazol-4-yl]propyl}-7H-pyrrolo[2,3-d]pyrimidine-6-carbonitrile] | 30 | 21.5 |
| CCC(c1cn(-c2ccc(F)c(F)c2)nn1)n1cc(-c2cncnc2OC)c2c(N)ncnc21 (single isomer, unassigned; enantiomer 1) [Example 151, (+) 7-{1-[1-(3,4-Difluorophenyl)-1H-1,2,3-triazol-4-yl]propyl}-5-(4-methoxypyrimidin-5-yl)-7H-pyrrolo[2,3-d]pyrimidin-4-amine, enantiomer 1] | 35.5 | 34.1 |
| CCC(c1cn(-c2ccccc2F)nn1)n1cc(-c2cnc(C(F)(F)F)nc2)c2c(N)ncnc21 (single isomer, unassigned; enantiomer 1) [Example 137, 7-{1-[1-(2-Fluorophenyl)-1H-1,2,3-triazol-4-yl]propyl}-5-[2-(trifluoromethyl)pyrimidin-5-yl]-7H-pyrrolo[2,3-d]pyrimidin-4-amine, enantiomer 1] | 10.3 | 5.86 |
| CCC(c1cn(-c2ccccc2F)nn1)n1cc(-c2cnc(C(F)F)nc2)c2c(N)ncnc21 (single isomer, unassigned; enantiomer 1) [Example 143, 5-[2-(Difluoromethyl)pyrimidin-5-yl]-7-{1-[1-(2-fluorophenyl)-1H-1,2,3-triazol-4-yl]propyl}-7H-pyrrolo[2,3-d]pyrimidin-4-amine, enantiomer 1] | 26 | 10.5 |
| N#Cc1ccc(-c2cn(Cc3cnc(-c4ccccc4F)[nH]3)c3ncnc(N)c23)cc1F [Example 192, 4-(4-Amino-7-{[2-(2-fluorophenyl)-1H-imidazol-5-yl]methyl}-7H-pyrrolo[2,3-d]pyrimidin-5-yl)-2-fluorobenzonitrile] | 118 | 83 |
